Values quoted from earlier work in patent publication US20080064694A1, “Multi-Phase Release Methscopolamine Compositions” (Auriga Laboratories, Inc., priority 2006, published 2008).
Entries after “also recorded” stand apart in the source; their conditions may differ.

Conditions: following administration of methscopolamine bromide

In the case of “[7(S)-( 1α, 2β, 4β, 5α, 7β)]-7-(3-hydroxy-1oxo-2-phenylpropoxy)-9,9-dimethyl-3-Oxo-9-azoniatricyclo[3.3.1.0]nonane [Methscopolamine bromide]”, the adverse reactions observed is given as “Tachycardia, palpitation; also recorded: Severe allergic reaction or drug idiosyncrasies including anaphylaxis; also recorded: Headaches, nervousness, mental confusion, drowsiness, dizziness; also recorded: Blurred vision, dilation of the pupil, cycloplegia, increased ocular tension, loss of taste; also recorded: Urinary hesitancy and retention; also recorded: Nausea, vomiting, constipation, bloated feeling; also recorded: Decreased sweating, urticaria and other dermal manifestations; also recorded: Xerostomia, weakness, insomnia, impotence, suppression of lactation”.
